From US6872742B2, “Substituted cyclic amine metalloprotease inhibitors” (The Procter & Gamble Company, priority 1996, dated 2005)

Experiments:
Format in all cases: in vivo
[1] = tested on: asthma sufferer; assay: Example E: inhalation aerosol used by an asthma sufferer; settings: 5.0% w/v aerosol, 0.01 mL sprayed into the mouth while inhaling
Procedure: (§1) The compounds of the invention are useful to prepare compositions for the treatment of ailments and the like. […] In each case the compounds formula I may be substituted for the example compound shown below with similar results. […] The skilled practitioner will appreciate that the examples provide guidance and may be varied based on condition and the patient. A inhalation aerosol composition, according to the present invention, is made comprising: An asthma sufferer sprays 0.01 mL via a pump actuator into the mouth while inhaling.

[2] = tested on: patient suffering from chemical burns; assay: Example D: topical composition applied by a patient suffering from chemical burns; settings: 0.20% w/v topical composition at each dressing change (b.i.d.)
From the text: as §1, with “topical composition for local administration,” for “inhalation aerosol composition,”, “A patient suffering from chemical burns applies” for “An asthma sufferer sprays 0.01 mL via a pump actuator into”, “composition at each dressing change (b.i.d.).” for “mouth while inhaling.”

[3] = tested on: human subject suffering from osteoarthritis; assay: Example B: capsule given daily to a subject suffering from osteoarthritis; settings: capsule containing 70 mg daily for 5 years, 90 kg person
From the text: The compounds of the invention are useful to prepare compositions for the treatment of ailments and the like. […] In each case the compounds formula I may be substituted for the example compound shown below with similar results.
The skilled practitioner will appreciate that the examples provide guidance and may be varied based on condition and the patient.
A capsule for oral administration, according to the present invention, is made comprising:
A human subject weighing 90 kg (198 lbs), suffering from osteoarthritis, is treated by a method of this invention. Specifically, for 5 years, a capsule containing 70 mg of the compound of Example 3 is administered daily to said subject.

[4] = tested on: human subject with a premetastatic tumor; assay: Example G: parenteral suspension injected next to a premetastatic tumor; settings: 100 mg/ml suspension, approximately 2.0 ml injected beside the tumor twice daily for approximately 30 days
From the text: The compounds of the invention are useful to prepare compositions for the treatment of ailments and the like. […] In each case the compounds formula I may be substituted for the example compound shown below with similar results. […] The skilled practitioner will appreciate that the examples provide guidance and may be varied based on condition and the patient. A composition for parenteral administration is made comprising: The above ingredients are mixed, forming a suspension. Approximately 2.0 ml of the suspension is administered, via injection, to a human subject with a premetastatic tumor. The injection site juxtaposes the tumor. This dosage is repeated twice daily, for approximately 30 days.

[5] = tested on: human subject suffering from rheumatoid arthritis; assay: Example A: tablets given orally to a subject suffering from rheumatoid arthritis; settings: tablet with 15 mg compound, three tablets per day orally for 2 years, 60 kg person
From the text: The compounds of the invention are useful to prepare compositions for the treatment of ailments and the like. […] In each case the compounds formula I may be substituted for the example compound shown below with similar results. […] The skilled practitioner will appreciate that the examples provide guidance and may be varied based on condition and the patient. A tablet composition for oral administration, according to the present invention, is made comprising: A human subject weighing 60 kg (132 lbs), suffering from rheumatoid arthritis, is treated by a method of this invention. Specifically, for 2 years, a regimen of three tablets per day is administered orally to said subject.

[6] = tested on: patient having deep corneal abrasion; assay: Example C: saline-based eye drop applied by a patient having deep corneal abrasion; settings: 5% w/w drop applied to each eye twice a day
From the text: as §1, with “saline-based composition for local administration,” for “inhalation aerosol composition,”, “A patient having deep corneal abrasion applies the drop to each eye twice” for “An asthma sufferer sprays 0.01 mL via”, “day.” for “pump actuator into the mouth while inhaling.”

`COc1ccc(S(=O)(=O)N2C[C@@H](O)C[C@@H]2C(=O)NO)cc1` [Example 2, (1N)-4-Methoxyphenylsulfonyl-(2R)-N-hydroxycarboxamido-(4S)-hydroxypyrrolidine] was tested, and the asthma symptoms [1] was “Asthma symptoms are diminished”.
For `COc1ccc(S(=O)(=O)N2C[C@H](O)C[C@H]2C(=O)NO)cc1` [Example 3, (1N)-4-Methoxyphenylsulfonyl-(2S)-N-hydroxycarboxanido-(4R)-hydroxypyrrolidine], the scarring [2] was “Scarring is substantially diminished” and the “orthoscopy finding at the end of the treatment period (erosion/fibrillation of the articular cartilage)” value [3] was “no further advancement of erosion/fibrillation of the articular cartilage”.
`COc1ccc(S(=O)(=O)N2C[C@@H](O)C[C@H]2C(=O)NO)cc1` [Example 4, (1N)-4-Methoxyphenylsulfonyl-(2S)-N-hydroxycarboxanido-(4S)-hydroxy-pyrrolidine] was tested, and the “symptoms of the disease after 30 days” value [4] was “symptoms of the disease subside”.
In the case of `COc1ccc(S(=O)(=O)N2C[C@H](Sc3nccn3C)C[C@@H]2C(=O)NO)cc1` [Example 9, (1N)-4-Methoxyphenylsulfonyl-(2R)-N-hydroxycarboxado-(4R)-[(1N)-methyl-2-mercaptoimidazyl]-pyrrolidine], the “findings on examination at the end of the treatment period (inflammation, mobility, pain)” value [5] is reported as “reduced inflammation, and improved mobility without concomitant pain”.
With `COc1ccc(S(=O)(=O)N2C[C@@H](Oc3ccccc3)C[C@@H]2C(=O)NO)cc1` [Example 13, (1N)-4-Methoxyphenylsulfonyl-(2R)-N-hydroxycarboxamido-(4S)-phenoxypyrrolidine] the corneal healing [6] was “Healing is speeded, with no visual sequelae”.
